Results on 10 compounds are retold here after article PMC3922157 (Journal of Antimicrobial Chemotherapy, 2013).

The test system of series [1] is bloodstream-form T. b. brucei. Put plainly: Alamar blue drug susceptibility assay, bloodstream-form trypanosomes. Type of series: cell-based. The conditions noted are these: for Increase in susceptibility on expression of TbAT1: TbAT1 expressed in B48 (Figure S6); for EC50: Trypanosoma brucei. As for the experimental part: (§1) Drug susceptibilities of the bloodstream-form trypanosomes[47] and L. mexicana promastigotes[48] were determined using the Alamar blue assay exactly as described previously, measuring fluorescence in 96-well plates with a FLUOstar Optima (BMG Labtech, Durham, NC, USA) at wavelengths of 544 nm for excitation and 620 nm for emission. EC50 values were calculated by non-linear regression using an equation for a sigmoidal dose–response curve with variable slope (GraphPad Prism 5.0; GraphPad Software Inc., San Diego, CA, USA).

For series [2], the system named is procyclic T. b. brucei 247MR. It is filed as cell-based.
Series [3] concerns procyclic T. b. gambiense 386MR. Type of series: cell-based.
In series [4] the target is T1, HAPT1 (Trypanosoma brucei brucei, UniProt Q6ZXT3). Put plainly: cell-based. Type of series: cell-based, T. b. brucei.
T1 sequence (Q6ZXT3 whole entry): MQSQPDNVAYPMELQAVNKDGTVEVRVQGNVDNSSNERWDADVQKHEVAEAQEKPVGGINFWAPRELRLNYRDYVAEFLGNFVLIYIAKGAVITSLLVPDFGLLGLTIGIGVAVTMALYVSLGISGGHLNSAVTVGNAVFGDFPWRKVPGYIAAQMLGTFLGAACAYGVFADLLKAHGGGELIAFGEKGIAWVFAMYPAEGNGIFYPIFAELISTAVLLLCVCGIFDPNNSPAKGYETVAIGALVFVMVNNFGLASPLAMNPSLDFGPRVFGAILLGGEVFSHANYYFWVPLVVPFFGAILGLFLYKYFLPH
Series [5] addresses T1, HAPT1. The series is described as follows: cell-based. Type of series: cell-based, T. b. gambiense.
The subject of series [6] is LAPT1. Put plainly: [3H]pentamidine low-affinity transport, bloodstream forms. It is filed as cell-based, T. b. brucei. As to conditions: for Km: read-out: LAPT1 pentamidine Km.
In series [7] the target is T2, TbAQP2 (Trypanosoma brucei brucei, UniProt Q6ZXT3). The series is described as follows: cell-based.
T2 sequence (Q6ZXT3 whole entry): as above
Series [8] has as its target T1, HAPT1. Put plainly: [3H]pentamidine high-affinity transport, bloodstream forms.
Series [9] deals with T1, HAPT1. On the set-up: endogenous in cells; host or cells: bloodstream-form T. b. brucei Lister 427 derivatives (s427 WT, TbAT1-KO, 2T1: endogenous AQP2; B48/AQP2: wild-type TbAQP2 from vector pHDK21, derived from pHD1336). As to conditions: cited from earlier work.
Series [10] relates to Leishmania mexicana promastigotes. The series is described as follows: Alamar blue drug susceptibility assay, L. mexicana promastigotes expressing T. brucei aquaporins. Type of series: cell-based. As to conditions: for Sensitization by expression of TbAQP2: L. mexicana promastigotes expressing TbAQP2 vs empty-vector control. As for the experimental part: as §1
TbAQP2 and TbAQP3 were amplified from genomic DNA by PCR using Phusion polymerase (Thermo Scientific) and subcloned into the pNUS vector for expression in Leishmania.[49] The construct was verified by sequencing before transfection into L. mexicana promastigotes using an Amaxa Nucleofector (program U-33).
In general terms: The colour change of resazurin is a common sign of viable cells or microbes.

A further series deals with T3, TbAQP3 (Trypanosoma brucei brucei, UniProt Q6ZXT2).
T3 construct: expressed in transfected cells; host or cells: Leishmania mexicana promastigotes, pNUS vector
T3 sequence (Q6ZXT2 whole entry): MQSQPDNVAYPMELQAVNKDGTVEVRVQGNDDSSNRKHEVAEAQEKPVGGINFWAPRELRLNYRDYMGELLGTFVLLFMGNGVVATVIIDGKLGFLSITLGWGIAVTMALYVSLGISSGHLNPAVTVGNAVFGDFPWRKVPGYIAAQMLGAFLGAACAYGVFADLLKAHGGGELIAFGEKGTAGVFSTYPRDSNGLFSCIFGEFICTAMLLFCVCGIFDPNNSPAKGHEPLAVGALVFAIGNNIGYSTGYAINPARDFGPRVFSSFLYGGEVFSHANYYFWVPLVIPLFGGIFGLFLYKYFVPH
Type of series: cell-based, T. b. brucei. As to conditions: 100 nM [3H]pentamidine over 5 min; TbAQP3-transfected promastigotes.

The next series relates to T. b. brucei. The conditions noted are these: cited from earlier work.
The test system of series [11] is LAPT1. The conditions noted are these: 1 μM [3H]pentamidine; for Km: read-out: LAPT1 Km.
For series [12], the system named is LAPT1. The conditions noted are these: 1 μM [3H]pentamidine; for Km: read-out: LAPT1 Km. The source holds these as a separate data set.
Series [13] deals with T2, TbAQP2.
Another series has as its system T. b. gambiense. The conditions noted are these: cited from earlier work.
The test system of another series is T. b. rhodesiense. As to conditions: cited from earlier work. Further: key: highly sensitive (+++); ++: indicated on a relative scale; +: indicated on a relative scale; +/−: indicated on a relative scale; −: indicated on a relative scale; highly resistant to pentamidine or melaminophenyl arsenicals (−−−).
Series [14] relates to bloodstream-form T. b. brucei. The conditions noted are these: cited from earlier work.
The next series deals with T. b. brucei 247MR. On the set-up: method as in PMID 9225768. As to conditions: cited from earlier work.
The subject of series [15] is LAPT1. The conditions noted are these: cited from earlier work.
Series [16] relates to N=C(N)c1ccc(OCCCCCOc2ccc(C(=N)N)cc2)cc1. Put plainly: cells, lysate or membranes. As to conditions: pH 7.3.
The mark [17] stands for this setting: B48 + TbAQP2 vs B48 empty vector (Figure 1).
Where [18] appears, read: P1000 + TbAQP2 vs P1000 empty vector (Figure 1).

The EC50 is the concentration needed to bring the measured effect to its halfway point. For orientation: Ki means the equilibrium dissociation constant of an inhibitor or competing ligand from its target. The term IC50 denotes the point on the concentration scale where inhibition reaches its midpoint. As a reminder, the Km is the substrate concentration at which the rate is half of its maximum.

Read-outs that look alike come from different tables or passages of the source. A value given as a limit tells only on which side of the number the result lay.
Wherever susceptibility is given: key: highly sensitive (+++); ++: indicated on a relative scale; +: indicated on a relative scale; +/−: indicated on a relative scale; −: indicated on a relative scale; highly resistant to pentamidine or melaminophenyl arsenicals (−−−).

`Nc1ncnc2c1ncn2[C@@H]1O[C@H](CO)C[C@H]1O` [cordycepin, 3′-deoxyadenosine]: the “Increase in susceptibility on expression of TbAT1” value (shortened to “Increase in susceptibility”) in series [1] (P < 0.001) was greater than 20 fold.
As to `Nc1ncnc2c1ccn2[C@@H]1O[C@H](CO)[C@@H](O)[C@H]1O` [tubercidin, 7-deazaadenosine], in series [1] (P < 0.001), the “Increase in susceptibility” value was greater than 20 fold. Also, the EC50 in series [1] (s427 WT, read-out: EC50) came out at 0.23 ± 0.03 µM; in series [1] (tbat1−/− strain, read-out: EC50), 2.65 ± 0.23 µM. In series [1] (tbat1−/− strain relative to s427 WT), this compound returned a Decrease in susceptibility of 10 fold.
`Cl.Cl.NCCS[As](SCCN)c1ccc(Nc2nc(N)nc(N)n2)cc1` [Cymelarsan]: the “Reversal of resistance on expression of TbAQP2” value (from here on “Reversal of resistance”) in series [1] (setting [17]) is 16.7 fold; in [1] (setting [18]) it was 15.0 fold. Also, the Difference in susceptibility is listed as 4.1 fold in series [1] (aqp2 null vs aqp2 null expressing WT AQP2, P < 0.001) and 1.4 fold in series [1] (aqp2 null vs aqp2 null expressing chAQP2/3, P < 0.05). Besides, the “Resistance relative to parental line” value was determined as 755 fold in [2] and 83 fold in series [3].
For `N=C(N)c1ccc(OCCCOc2ccc(C(=N)N)cc2)cc1` [propamidine], the inhibitory constant (Ki) on HAPT1 [4] is 14 ± 2 µM; on HAPT1 [5] it was 22 ± 6 µM; at TbAQP2 [7] it was 8.1 ± 0.8 µM; at HAPT1 [8] it was 15.2 ± 1.6 µM; at HAPT1 [9] (TbAT1-KO bloodstream forms, ref Matovu et al. 14), 13 ± 3 µM; at HAPT1 [9] (WT s427 bloodstream forms, ref De Koning 17) it was 4.6 ± 0.7 µM. In the series on LAPT1 [6] (aqp2 null cells, 30 nM [3H]pentamidine, 1 mM adenosine), the “IC50, inhibition of [3H]pentamidine uptake” value is on record as “insensitive”.
With `C[C@@H]1[C@H](O)[C@@H](C)/C=C/C=C/C=C/C=C/C=C/C=C/C=C/[C@H](O[C@@H]2O[C@H](C)[C@@H](O)[C@H](N)[C@@H]2O)C[C@@H]2O[C@](O)(C[C@@H](O)C[C@@H](O)[C@H](O)CC[C@@H](O)C[C@@H](O)CC(=O)O[C@H]1C)C[C@H](O)[C@H]2C(=O)O` [amphotericin B], the “Sensitization by expression of TbAQP2” value in [10] is on record as “no statistically significant effect”.
In the case of `C[C@H]1O[C@@H](n2cnc3c(N)ncnc32)[C@H](O)[C@@H]1O` [5′-deoxyadenosine], the “Increase in susceptibility” value in [1] (P < 0.001) is reported as greater than 20 fold.
For `N=C(N)c1ccc(/N=N/Nc2ccc(C(=N)N)cc2)cc1` [diminazene], the “Reversal of resistance” value in series [1] (setting [17]) and in series [1] (setting [18]) was “not affected” in each case. The “Sensitization by expression of TbAQP2” value in [10] was “no statistically significant effect”. Moreover, the affinity at TbAQP2 [7], expressed as Ki, was 100 ± 21 µM.
On to `N=C(N)c1ccc(OCCCCCOc2ccc(C(=N)N)cc2)cc1` [pentamidine], for which the “Reversal of resistance” value was found to be 50 fold in series [1] (setting [17]) and 240 fold in [1] (setting [18]). The EC50 in series [1] stood at 0.158 ± 0.002 µM; in series [1] (aqp2/aqp3 null expressing AQP3^sf2, P < 0.02) it was 0.131 ± 0.003 µM. For the same compound, the “Resistance relative to parental line” value in series [2] is reported as 74 fold; in series [3] it was 90 fold. Besides, in series [10], the “Sensitization by expression of TbAQP2” value came to 40 fold. Besides, the “Sensitization by expression of TbAQP3” value in series [10] (L. mexicana promastigotes expressing TbAQP3, two independent clones) was 1.5–2.5 fold. For the same compound, the “HAPT1 Vmax” value on HAPT1 [4] (STIB 247WT procyclics, 25 nM [3H]pentamidine) was found to be 0.008 ± 0.002 pmol/10^7 cells/s; at HAPT1 [5] (STIB 386WT procyclics, 25 nM [3H]pentamidine) it was 0.007 ± 0.002 pmol/10^7 cells/s. For the same compound, the “Increase of [3H]pentamidine uptake on expression of TbAQP2” value in the series with LAPT1 [6] (1 μM pentamidine, B48 + TbAQP2 vs B48) was 2.5 fold; on HAPT1 [8] (50 nM pentamidine, B48 + TbAQP2 vs B48), 27.7 fold. Besides, the “Uptake of [3H]pentamidine compared with control” value is recorded as “not significantly different” with LAPT1 [6] (1 μM pentamidine, B48 compared with TbAT1-KO) and “not significantly different” at TbAQP3. Moreover, the IC50 in the series with LAPT1 [6] (read-out: IC50, inhibition of [3H]pentamidine uptake, low-affinity phase, 2T1 control cells, 30 nM [3H]pentamidine, 1 mM adenosine, n = 3) was 29.9 ± 4.3 µM; with LAPT1 [6] (read-out: IC50, inhibition of [3H]pentamidine uptake, aqp2 null cells, 30 nM [3H]pentamidine, 1 mM adenosine) it was 33.4 ± 9.5 µM; against HAPT1 [8] it was 0.06 ± 0.017 µM. In addition, the Km worked out at 66 ± 1 µM in the series with LAPT1 [6] (B48/AQP2 bloodstream forms); 99 ± 24 µM in the series with LAPT1 [6] (P1000 bloodstream forms); 56 ± 19 µM in the series on LAPT1 [11] (STIB 247MR procyclics); 49 ± 19 µM with LAPT1 [11] (STIB 247WT procyclics); 51 ± 2 µM in the series on LAPT1 [12] (STIB 386MR procyclics); 46 ± 9 µM in the series with LAPT1 [12] (STIB 386WT procyclics). Further, the Michaelis-Menten constant (Km) is 56 ± 7 µM in the series on LAPT1 [15] (read-out: LAPT1 pentamidine Km, B48 bloodstream forms, ref Bridges et al. 16); 50 ± 17 µM in the series with LAPT1 [15] (read-out: LAPT1 pentamidine Km, TbAT1-KO bloodstream forms, ref Matovu et al. 14); 56 ± 8 µM in the series with LAPT1 [15] (read-out: LAPT1 pentamidine Km, WT s427 bloodstream forms, ref De Koning 17); 56.2 ± 8.3 µM with LAPT1 [15] (read-out: published pentamidine Km for LAPT1). Besides, the Susceptibility entry is “+++ and +/− and ++ and −” in the series on T. b. brucei; “+++ and +/−” in the series on T. b. gambiense; “+++ and −” in the series with T. b. rhodesiense. For the same compound, the “LAPT1 Vmax” value with LAPT1 [11] (STIB 247MR procyclics) is reported as 0.41 ± 0.10 pmol/10^7 cells/s; in the series with LAPT1 [11] (STIB 247WT procyclics), 0.65 ± 0.17 pmol/10^7 cells/s; in the series on LAPT1 [12] (STIB 386MR procyclics), 1.2 ± 0.4 pmol/10^7 cells/s; with LAPT1 [12] (STIB 386WT procyclics), 0.70 ± 0.15 pmol/10^7 cells/s. In addition, the “Rate of [3H]pentamidine uptake” value at TbAQP2 [13] (50 nM [3H]pentamidine in the presence of 1 mM unlabelled pentamidine) is given as 0.00026 ± 1.8 × 10^−6 pmol/10^7 cells/s; on TbAQP2 [13] (50 nM [3H]pentamidine, over 15 s), 0.032 ± 0.002 pmol/10^7 cells/s. Besides, the “Increase of [3H]pentamidine uptake” value at TbAQP2 [13] (100 nM [3H]pentamidine over 5 min, TbAQP2-expressing promastigotes vs control) is listed as roughly 15 fold. Besides, the “Loss of sensitivity on homozygous deletion of TbAT1” value in series [14] is 2.5–3 fold. Further, the “Pentamidine resistance in vivo relative to parental line” value in the series with T. b. brucei 247MR is listed as greater than 50 fold. Besides, at HAPT1 [8] (50 nM [3H]pentamidine, B48 compared with TbAT1-KO control), the “Reduction of [3H]pentamidine uptake” value amounted to 15.5 fold.
Take HAPT1 (Trypanosoma brucei brucei): in series [16] (other: B48/AQP2 bloodstream forms), the Km came out at 0.046 ± 0.014 µM.
Consider TbAQP2 (Trypanosoma brucei brucei), for which the Km in [16] (other: L. mexicana/TbAQP2 promastigotes) amounted to 0.055 ± 0.004 µM.
